The record followed here is patent US20260226019A1, “NEGATIVE ALLOSTERIC MODULATORS OF METABOTROPIC GLUTAMATE RECEPTOR 2” (Vanderbilt University, priority 2023, published 2026).

The target of the experiment is T1, human mGlu2 (Homo sapiens, UniProt Q14416).
T1 construct: expressed in transfected cells; host or cells: HEK-293 stably co-expressing GIRK channels
The experiment in a line: mGlu GIRK cell-based thallium flux assay, human mGlu2. The note with it: HEK-293 cells co-expressing human mGlu2 and GIRK, EC80 glutamate, single experiment. The procedure: Human embryonic kidney (HEK-293) cell lines stably co-expressing human or rat mGlu2 and G protein-coupled inwardly rectifying potassium (GIRK) channels, or human mGlu3 and GIRK, were used for in vitro evaluation of compound activity in thallium flux assay using a fluorescent thallium indicator dye.
The day before the assay, GIRK cells co-expressing human mGlu3, human or rat mGlu2, as described above, were plated in black-walled, clear-bottomed, amine-coated 384-well plates at a density of 15,000 cells/[…]/well in the assay medium (glutamine-depleted basal DMEM supplemented with 10% dialyzed FBS, 20 mM HEPES, 1 mM sodium pyruvate). Cells were incubated at 37° C. in the presence of 5% CO2. The next day, assay buffer (Hanks balanced salt solution, 20 mM HEPES, 4.16 mM sodium bicarbonate, pH 7.2) was prepared to dilute compounds and Thallos AM fluorescent dye solution. The 2× Thallos dye solution (final concentration 0.34 μM to the cells) was prepared by mixing the dye stock (2.97 mM in DMSO) to 1:1 with 10% pluronic acid before adding to the assay buffer. Cells were washed with assay buffer using a microplate washer to remove the medium, resulting in 20 μL of buffer remaining in each well. […] During the cell dye loading incubation period, a 10-point concentration serial dilution of compound was created from a 10 mM DMSO compound stock by performing a 1:3 serial dilution in DMSO using the Bravo liquid handler. The 2× compound plate was generated by transferring 0.24 μL of the diluted compound in each well to a daughter plate using an Echo acoustic liquid handler. This is further diluted in 40 μL assay buffer, resulting in a range from […] to 1.5 nM final concentration in the assay. The agonist plate (5×) was prepared to include EC80 glutamate concentration (a concentration to elicit 80% of a maximally effective glutamate concentration) in thallium buffer (125 mM sodium bicarbonate, 1 mM magnesium sulfate, 1.8 mM calcium sulfate, 5 mM glucose, 10 mM HEPES, pH 7.2, 12.5 mM thallium sulfate).
After dye-loading, cell plates were washed with assay buffer to remove excess extracellular dye using a microplate washer, resulting in 20 μL of buffer remaining in each well. After a ten-minute equilibration period, cell, compound and agonist plates were loaded into a Hamamatsu μCell kinetic imaging plate reader equipped with liquid handler to monitor fluorescence changes at 480 nm excitation and 540 nm emission settings. Briefly, after collection of baseline fluorescence, 20 μL of compound was added and incubated for two minutes and twenty seconds. This is immediately followed by adding 10 μL of glutamate-thallium buffer to the wells containing compound. The fluorescent signal was monitored an additional 2.5 minutes after the glutamate addition. Multiple reference wells containing no compound received either no glutamate (for a baseline reference), EC80 glutamate, or ECmax glutamate (for normalization to maximum response). […] Each compound concentration series occurred one time in each plate, and replicates from two or three plates were used in each experimental run. Thallium solutions were handled and disposed of according to guidelines from the Vanderbilt University Chemical Safety department.
Data were normalized using a static ratio function (F/F0) by dividing every fluorescent measurement by the initial fluorescent value for the corresponding well. The increase in signal resulting from the glutamate/thallium addition of the second add was measured by determining the slope from 3 seconds to 13 seconds after the addition. The average of all baseline slopes (no compound, no glutamate) was determined and this value was subtracted from all other slope values. The average of all ECmax slopes was determined and this value was used to normalize the baseline-corrected slopes to a percent max value (% Emax).

Where only a bound is given, the exact number is not on record here.

T1 sequence (Q14416 19-872): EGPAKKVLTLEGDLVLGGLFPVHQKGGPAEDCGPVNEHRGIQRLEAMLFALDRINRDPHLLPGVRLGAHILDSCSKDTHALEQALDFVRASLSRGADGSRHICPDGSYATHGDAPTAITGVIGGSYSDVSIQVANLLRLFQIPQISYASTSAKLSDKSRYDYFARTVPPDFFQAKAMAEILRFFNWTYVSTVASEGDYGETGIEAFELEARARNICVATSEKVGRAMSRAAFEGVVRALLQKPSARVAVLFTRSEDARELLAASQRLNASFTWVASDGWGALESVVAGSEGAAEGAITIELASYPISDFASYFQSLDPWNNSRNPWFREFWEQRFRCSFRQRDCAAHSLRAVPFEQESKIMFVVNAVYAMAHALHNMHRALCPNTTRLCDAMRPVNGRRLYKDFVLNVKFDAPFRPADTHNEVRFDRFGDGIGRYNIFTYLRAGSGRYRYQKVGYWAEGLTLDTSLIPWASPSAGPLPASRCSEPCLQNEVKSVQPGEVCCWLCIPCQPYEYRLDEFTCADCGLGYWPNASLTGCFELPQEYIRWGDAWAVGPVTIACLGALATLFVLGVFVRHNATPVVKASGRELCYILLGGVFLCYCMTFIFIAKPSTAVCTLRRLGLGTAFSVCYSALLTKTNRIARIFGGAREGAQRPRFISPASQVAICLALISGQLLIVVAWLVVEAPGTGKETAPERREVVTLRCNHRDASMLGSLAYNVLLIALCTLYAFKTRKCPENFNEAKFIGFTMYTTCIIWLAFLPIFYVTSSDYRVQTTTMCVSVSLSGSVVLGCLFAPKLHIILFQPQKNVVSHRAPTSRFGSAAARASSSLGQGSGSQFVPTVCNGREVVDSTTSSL

Take `O=C1NCc2c1cc(-c1ccc(F)cc1F)cc2-c1cncnc1` [Compound 37, 6-(2,4-difluorophenyl)-4-(pyrimidin-5-yl)isoindolin-1-one]: the midpoint of inhibition, the IC50, lay at 950 nM. That is a sub-micromolar value.
For the molecule `Cc1cc(-c2cc3c(c(-c4cnsc4)c2)CNC3=O)c(F)cc1C#N` [Compound 51, 5-fluoro-4-(7-(isothiazol-4-yl)-3-oxoisoindolin-5-yl)-2-methylbenzonitrile], the “Human mGlu2 GIRK IC50 (nM)” value was “Inactive”.
For `O=C1NCc2c1cc(-c1ccc(F)cc1F)cc2C1CCCCO1` (stereo not shown) [Compound B10, 6-(2,4-difluorophenyl)-4-(tetrahydro-2H-pyran-2-yl)isoindolin-1-one], the IC50 (usually the concentration at which inhibition is half-maximal) was 329 nM.
Same read-out and setting: for `COc1cc(F)c(-c2cc3c(c(-c4cnsc4)c2)CNC3=O)c(F)c1` [Compound 56, 6-(2,6-difluoro-4-methoxyphenyl)-4-(isothiazol-4-yl)isoindolin-1-one] the value was over 10000 nM; for `O=C1NCc2c1cc(-c1ccc(F)cc1F)cc2-c1ccc2nccnc2c1` [Compound 27, 6-(2,4-difluorophenyl)-4-(quinoxalin-6-yl)isoindolin-1-one], 1830 nM; for `O=C1NCc2c1cc(-c1ccc(F)cc1F)cc2-c1ccc2cccnc2c1` [Compound 22, 6-(2,4-difluorophenyl)-4-(quinolin-7-yl)isoindolin-1-one], 2380 nM.
Same read-out and setting: the value for `O=C1NCc2c1cc(-c1ccc(F)cc1F)cc2-c1ccnnc1` [Compound 12, 6-(2,4-difluorophenyl)-4-(pyridazin-4-yl)isoindolin-1-one] was 1120 nM; that for `O=C1NCc2c1cc(-c1ccc(F)cc1F)cc2-c1cnc(C(F)(F)F)nc1` [Compound 32, 6-(2,4-difluorophenyl)-4-(2-(trifluoromethyl)pyrimidin-5-yl)isoindolin-1-one] was 3130 nM.
`Cc1cc2n(n1)CCN2c1cc(-c2ccc(F)cc2F)cc2c1CNC2=O` [Compound A23, 6-(2,4-difluorophenyl)-4-(6-methyl-2,3-dihydro-1H-imidazo[1,2-b]pyrazol-1-yl)isoindolin-1-one] registered an IC50 of 488 nM.
Still for that read-out and setting: for `Cc1cc(-c2cc(C3=CCOCC3)cc3c2CNC3=O)n(C)n1` [Compound 96, 6-(3,6-dihydro-2H-pyran-4-yl)-4-(1,3-dimethyl-1H-pyrazol-5-yl)isoindolin-1-one] the value was 380 nM.
On the same count and under the same terms, for `O=C1NCc2c1cc(-c1ccc(F)cc1F)cc2-c1ccsc1` [Compound 15, 6-(2,4-difluorophenyl)-4-(thiophen-3-yl)isoindolin-1-one] the value was 3230 nM; for `CCOc1ccc(-c2cc3c(c(-c4cnsc4)c2)CNC3=O)c(F)c1F` [Compound 54, 6-(4-ethoxy-2,3-difluorophenyl)-4-(isothiazol-4-yl)isoindolin-1-one], over 10000 nM; for `COc1cc(-c2cc(-c3ccc(F)cc3F)cc3c2CNC3=O)cc(C)n1` [Compound 91, 6-(2,4-difluorophenyl)-4-(2-methoxy-6-methylpyridin-4-yl)isoindolin-1-one], 433 nM.
Regarding `O=C1NCc2c1cc(-c1ccc(F)cc1F)cc2-c1cc2ccccc2s1` [Compound 28, 4-(benzo[b]thiophen-2-yl)-6-(2,4-difluorophenyl)isoindolin-1-one], the “Human mGlu2 GIRK IC50 (nM)” value is “Inactive”.
Take `N#Cc1c(F)ccc(-c2cc3c(c(-c4cnsc4)c2)CNC3=O)c1F` [Compound 55, 2,6-difluoro-3-(7-(isothiazol-4-yl)-3-oxoisoindolin-5-yl)benzonitrile]: the IC50 was over 10000 nM.
Same read-out and setting: for `O=C1NCc2c1cc(-c1c(F)cc(F)cc1F)cc2-c1cnsc1` [Compound 45, 4-(isothiazol-4-yl)-6-(2,4,6-trifluorophenyl)isoindolin-1-one] the value was 2070 nM.
Consider `COc1cc(C#N)ccc1-c1cc2c(c(-c3cnsc3)c1)CNC2=O` [Compound 53, 4-(7-(isothiazol-4-yl)-3-oxoisoindolin-5-yl)-3-methoxybenzonitrile], for which the “Human mGlu2 GIRK IC50 (nM)” value was “Inactive”.
`O=C1NCc2c(CN3CC(O)(C(F)(F)F)C3)cc(-c3ccc(F)cc3F)cc21` [Compound B8, 6-(2,4-difluorophenyl)-4-((3-hydroxy-3-(trifluoromethyl)azetidin-1-yl)methyl)isoindolin-1-one] had a concentration for half-maximal inhibition (IC50) of 193 nM. In other words, the sub-micromolar range.
As for `N#Cc1c(F)cc(-c2cc3c(c(-c4cnsc4)c2)CNC3=O)cc1F` [Compound 57, 2,6-difluoro-4-(7-(isothiazol-4-yl)-3-oxoisoindolin-5-yl)benzonitrile], the “Human mGlu2 GIRK IC50 (nM)” value is given as “Inactive”.
For `O=C1NCc2c1cc(-c1ccc(OC(F)F)cc1F)cc2-c1cnsc1` [Compound 46, 6-(4-(difluoromethoxy)-2-fluorophenyl)-4-(isothiazol-4-yl)isoindolin-1-one], the IC50 is over 10000 nM.
`O=C1NCc2c1cc(-c1ccc(F)cc1F)cc2N1CC(O)(C(F)(F)F)C1` [Compound A19, 6-(2,4-difluorophenyl)-4-(3-hydroxy-3-(trifluoromethyl)azetidin-1-yl)isoindolin-1-one] yielded an IC50 of 1220 nM.
Molecule `O=C1NCc2c1cc(-c1ccc(F)cc1F)cc2-c1ccc2cnccc2c1` [Compound 23, 6-(2,4-difluorophenyl)-4-(isoquinolin-6-yl)isoindolin-1-one] showed an IC50 of 1380 nM. This IC50 and that of the molecule before are within 1.5-fold of each other.
For the molecule `N#Cc1ccc(-c2cc3c(c(-c4cnsc4)c2)CNC3=O)c(F)c1` [Compound 43, 3-fluoro-4-(7-(isothiazol-4-yl)-3-oxoisoindolin-5-yl)benzonitrile], the midpoint of inhibition, the IC50, lay at 5070 nM. Against the preceding molecule, the IC50 is about 3.7-fold higher.
The same measure, in the same setting: for `O=C1NCc2c1cc(-c1ccc(F)cc1F)cc2C1=CCCCO1` [Compound B9, 6-(2,4-difluorophenyl)-4-(3,4-dihydro-2H-pyran-6-yl)isoindolin-1-one] the value was 853 nM; for `CCn1nccc1-c1cc(C2=CCOCC2)cc2c1CNC2=O` [Compound 95, 6-(3,6-dihydro-2H-pyran-4-yl)-4-(1-ethyl-1H-pyrazol-5-yl)isoindolin-1-one], 323 nM; for `O=C1NCc2c1cc(-c1ccc(F)cc1F)cc2-c1cnn(C2CCC2)c1` [Compound 17, 4-(1-cyclobutyl-1H-pyrazol-4-yl)-6-(2,4-difluorophenyl)isoindolin-1-one], 2560 nM.
Same read-out and setting: the value for `CC(C)n1nccc1-c1cc(C2CCOCC2)cc2c1CNC2=O` [Compound 88, 4-(1-isopropyl-1H-pyrazol-5-yl)-6-(tetrahydro-2H-pyran-4-yl)isoindolin-1-one] was 1700 nM; that for `Cc1ccncc1-c1cc(-c2ccc(F)cc2F)cc2c1CNC2=O` [Compound 89, 6-(2,4-difluorophenyl)-4-(4-methylpyridin-3-yl)isoindolin-1-one] was 118 nM.
On the same count and under the same terms, for `O=C1NCc2c1cc(-c1ccc(F)cc1F)cc2-c1ccc2ccncc2c1` [Compound 26, 6-(2,4-difluorophenyl)-4-(isoquinolin-7-yl)isoindolin-1-one] the value was 2690 nM; for `COc1ccc(-c2cc3c(c(-c4cnsc4)c2)CNC3=O)c(F)c1` [Compound 44, 6-(2-fluoro-4-methoxyphenyl)-4-(isothiazol-4-yl)isoindolin-1-one], 3560 nM; for `O=C1NCc2c(CN3CC4CCC(C3)O4)cc(-c3ccc(F)cc3F)cc21` [Compound B7, 4-((8-oxa-3-azabicyclo[3.2.1]octan-3-yl)methyl)-6-(2,4-difluorophenyl)isoindolin-1-one], 292 nM.
